Data taken from patent US5011846A, “Medicament compositions derived from quinolizine and quinolizinone and methods of use thereof” (Merrell Dow Pharmaceuticals Inc., priority 1988, dated 1991).
Structures can show the parent of a compound that is named as a salt.

Key:
5-HT M-receptor = settings: literature values (Fozard et al.), 5-HT receptor antagonism; cited from earlier work
acute migraine attack = settings: cited from earlier work
[1] = tested on: nausea and vomiting induced by cancer chemotherapeutic agents; settings: animal experimental model (Miner et al.; Costall et al.); cited from earlier work
[2] = tested on: Von Bezold-Jarisch Reflex induced by 5-HT; experiment: Von Bezold-Jarisch Reflex induced by 5-HT injected intravenously into the rat; assay type: in vivo
Description: The activity of these compounds against 5-HT can be assessed in vivo by measurement of the effect of the compound on the Von Bezold-Jarisch Reflex induced by 5-HT injected intravenously into the rat (see Paintal A.S., Physiol. Rev. 53, 159-227, 1973; J. R. Fozard, Naunyn-Schmiedeberg's Arch. Pharmacol., 326, 1984, 36-44). The transient cardiac slowing arises from an increased afferent vagus activity arising from stimulation by 5-HT of sensory afferent fibers in and around the heart.

[3] = 0.01-0.1 mg/kg given intravenously

Compound | pA2 (5-HT M-receptor) | prevention of nausea and vomiting induced by cancer chemotherapeutic agents [1] | other results
CN1[C@@H]2CC[C@H]1C[C@@H](OC(=O)c1ccccc1)C2 [benzoyltropine] | 7.2 |  | 
CN1[C@@H]2CC[C@H]1C[C@@H](OC(=O)c1cc(Cl)cc(Cl)c1)C2 [3,5-dichlorobenzoyltropine] |  | highly effective | efficacy in the acute migraine attack (acute migraine attack; double-blind clinical trial (Loisy et al.)): proved an effective treatment
O=C(OC1CC2CC3CC(C1)N2CC3=O)c1c[nH]c2ccccc12 (stereo not drawn) [endo-hexahydro-8-(3-indolylcarbonyloxy)-2,6-methano-2H-quinolizin-3(4H)-one hydrochloride] |  |  | suppression of Von Bezold-Jarisch Reflex response [2, 3]: suppressed the response dose-dependently; suppression of Von Bezold-Jarisch Reflex response ([2]; 0.25-1 mg/kg given orally): suppressed the response dose-dependently
CN1[C@@H]2CC[C@H]1C[C@@H](OC(=O)c1c[nH]c3ccccc13)C2 [(3α-tropanyl)-1H-indole-3-carboxylic acid ester] |  | highly effective | 
Cc1cc(C)cc(C(=O)OC2CC3CC4CC(C2)N3CC4=O)c1 (stereo not drawn) [endo-8-(3,5-dimethylbenzoyl-oxy)hexahydro-2,6-methano-2H-quinolizin-3(4H)-one] |  |  | suppression of Von Bezold-Jarisch Reflex response [2, 3]: suppressed the response dose-dependently; suppression of Von Bezold-Jarisch Reflex response ([2]; 0.25-1 mg/kg given orally): suppressed the response dose-dependently
CN1[C@@H]2CC[C@H]1C[C@H](OC(=O)c1ccccc1)C2 [pseudotropyl benzoate] | 7.0 |  | 
CCN(CC)CCNC(=O)c1cc(Cl)c(N)cc1OC [metoclopramide] | 7.2 | highly effective | relief of an acute migraine attack (acute migraine attack; slow intravenous injection, 10 mg (Hughes 1977)): immediate relief of an acute migraine attack
COC(=O)[C@H]1[C@@H](OC(=O)c2ccccc2)C[C@@H]2CC[C@H]1N2 [nor (-) cocaine] | 7.7 |  | 
